Results: patent publication US9475784B2, “4,6-diarylaminothiazines as BACE1 inhibitors and their use for the reduction of beta-amyloid production” (BRISTOL-MYERS SQUIBB COMPANY, priority 2012, dated 2016)
Where a name gives a salt, the structure may show the parent alone.

Each molecule was assayed on Aβ42 production in H4 cells stably transfected with APP751 containing the Swedish mutation (H4 APP751 SWE clone 8.20) (assay: Cellular assay for inhibition of Aβ1-42 production (H4 APP751 SWE clone 8.20)). Conditions: H4 APP751 SWE clone 8.20 cells, 19 h incubation; Table 5A, 6-alkyl and 6-substituted phenyl thiazine examples.
Type: cell-based
Experimental: Cellular Assays for Inhibition of Aβ1-40 and Aβ1-42 Production
H4 cells stably transfected with APP751 containing the Swedish mutation (H4 APP751 SWE clone 8.20, developed at BMS) were maintained in log phase through twice weekly passage at a 1:20 split. […] Following incubation for 19 h in 5% CO2 at 37° C., plates were briefly centrifuged (1000 rpm, 5 min). A 10 μl aliquot from each well was transferred to a second assay plate (Costar 3709) for Aβ40 measurements. Antibody cocktails were freshly prepared by dilution into 40 mM Tris-HCl (pH 7.4) with 0.2% BSA and added to assay plates. For Aβ42 measurements, antibodies specific for the Aβ42 neoepitope (565, developed at BMS; conjugated to the Wallac reagent (Perkin Elmer)) and the N-terminal sequence of Aβ peptide (26D6, developed at SIBIA; conjugated to APC (Perkin Elmer)) were mixed and 20 μl of the mixture was added to each well of the incubated cell plate yielding a final concentration of 0.8 ng/well 565 and 75 ng/well 26D6. For the Aβ40 measurements, antibodies specific for the Aβ40 neoepitope (TSD, developed at BMS; conjugated to the Wallac reagent (Perkin Elmer)) and 26D6 as described above were mixed and 20 μl of the mixture was added to the 10 μl aliquots which had been removed previously from the cell plate yielding a final concentration of 1.6 ng/well TSD and 17.5 ng/well 26D6. Assay plates containing antibodies were sealed with aluminum foil and incubated overnight at 4° C. Signal was determined using a Viewlux counter (Perkin Elmer) and IC50 values determined using curve fitting in CurveMaster (Excel Fit based).

Row | Structure (SMILES) | IC50
1 | COc1ccc([C@@H]2C[C@@H](c3cc(-c4cncnc4)c(F)cc3F)N=C(N)S2)cc1OC (racemic) [Example 1, (±)-4-(2,4-difluoro-5-(pyrimidin-5-yl)phenyl)-6-(3,4-dimethoxyphenyl)-5,6-dihydro-4H-1,3-thiazin-2-amine] | 1100 nM
2 | NC1=N[C@H](c2cccc(-c3cncnc3)c2)C[C@@H](c2ccccc2)S1 (racemic) [Example 2, (±)-6-phenyl-4-(3-(pyrimidin-5-yl)phenyl)-5,6-dihydro-4H-1,3-thiazin-2-amine] | 4100 nM
3 | COc1ccc([C@@H]2C[C@@H](c3cccc(-c4cncnc4)c3)N=C(N)S2)cc1OC (racemic) [Example 3, (±)-6-(3,4-dimethoxyphenyl)-4-(3-(pyrimidin-5-yl)phenyl)-5,6-dihydro-4H-1,3-thiazin-2-amine] | 1100 nM
4 | NC1=N[C@H](c2cccc(-c3cncnc3)c2)C[C@@H](Cc2ccccc2)S1 (racemic) [Example 4, (±)-6-benzyl-4-(3-(pyrimidin-5-yl)phenyl)-5,6-dihydro-4H-1,3-thiazin-2-amine] | 7400 nM
5 | NC1=N[C@H](c2cccc(-c3cncnc3)c2)C[C@@H](C2CCCCC2)S1 (racemic) [Example 5, (±)-6-cyclohexyl-4-(3-(pyrimidin-5-yl)phenyl)-5,6-dihydro-4H-1,3-thiazin-2-amine] | 3800 nM
6 | C=CCC[C@@H]1C[C@@H](c2cccc(-c3cncnc3)c2)N=C(N)S1 (racemic) [Example 6, (±)-6-(but-3-enyl)-4-(3-(pyrimidin-5-yl)phenyl)-5,6-dihydro-4H-1,3-thiazin-2-amine] | 14000 nM
7 | COc1ccc([C@@H]2C[C@@H](c3ccc(F)c(-c4cncnc4)c3)N=C(N)S2)cc1OC (racemic) [Example 7, (±)-6-(3,4-dimethoxyphenyl)-4-(4-fluoro-3-(pyrimidin-5-yl)phenyl)-5,6-dihydro-4H-1,3-thiazin-2-amine] | 1700 nM
8 | COc1ccc([C@@H]2C[C@@H](c3cc(-c4cncnc4)ccc3F)N=C(N)S2)cc1OC (racemic) [Example 8, (±)-6-(3,4-dimethoxyphenyl)-4-(2-fluoro-5-(pyrimidin-5-yl)phenyl)-5,6-dihydro-4H-1,3-thiazin-2-amine] | 1900 nM
9 | NC1=N[C@H](c2cccc(-c3cncnc3)c2)C[C@@H](c2ccc(OC(F)(F)F)cc2)S1 (racemic) [Example 9, (±)-4-(3-(pyrimidin-5-yl)phenyl)-6-(4-(trifluoromethoxy)phenyl)-5,6-dihydro-4H-1,3-thiazin-2-amine] | 8900 nM
10 | COc1ccccc1[C@@H]1C[C@@H](c2cccc(-c3cncnc3)c2)N=C(N)S1 (racemic) [Example 11, (±)-6-(2-methoxyphenyl)-4-(3-(pyrimidin-5-yl)phenyl)-5,6-dihydro-4H-1,3-thiazin-2-amine•TFA] | 2400 nM
11 | N#Cc1ccc([C@@H]2C[C@@H](c3cccc(-c4cncnc4)c3)N=C(N)S2)cc1 (racemic) [Example 12, 4-((±)-2-amino-4-(3-(pyrimidin-5-yl)phenyl)-5,6-dihydro-4H-1,3-thiazin-6-yl)benzonitrile] | 1800 nM
12 | COc1ccc([C@@H]2C[C@@H](c3cccc(-c4cncnc4)c3)N=C(N)S2)cc1 (racemic) [Example 13, (±)-6-(4-methoxyphenyl)-4-(3-(pyrimidin-5-yl)phenyl)-5,6-dihydro-4H-1,3-thiazin-2-amine] | 3700 nM
13 | NC1=N[C@H](c2cccc(-c3cncnc3)c2)C[C@@H](c2ccc(Cl)cc2)S1 (racemic) [Example 14, (±)-6-(4-chlorophenyl)-4-(3-(pyrimidin-5-yl)phenyl)-5,6-dihydro-4H-1,3-thiazin-2-amine•TFA] | 2700 nM
14 | COc1cccc([C@@H]2C[C@@H](c3cccc(-c4cncnc4)c3)N=C(N)S2)c1 (racemic) [Example 15, (±)-6-(3-methoxyphenyl)-4-(3-(pyrimidin-5-yl)phenyl)-5,6-dihydro-4H-1,3-thiazin-2-amine•TFA] | 2800 nM
15 | NC1=N[C@H](c2cccc(-c3cncnc3)c2)C[C@@H](c2ccc(F)cc2)S1 (racemic) [Example 16, (±)-6-(4-fluorophenyl)-4-(3-(pyrimidin-5-yl)phenyl)-5,6-dihydro-4H-1,3-thiazin-2-amine•TFA] | 2600 nM
16 | COc1ccc([C@]23CCCCC2[C@@H](c2cccc(-c4cncnc4)c2)N=C(N)S3)cc1 (mixture of isomers) [Example 17, (±)-8a-(4-methoxyphenyl)-4-(3-(pyrimidin-5-yl)phenyl)-4a,5,6,7,8,8a-hexahydro-4H-benzo[e][1,3]thiazin-2-amine•TFA] | 3300 nM
17 | COc1ccc([C@@H]2C[C@@H](c3cc(-c4cncnc4)cs3)N=C(N)S2)cc1OC (racemic) [Example 30, (±)-6-(3,4-dimethoxyphenyl)-4-(4-(pyrimidin-5-yl)thiophen-2-yl)-5,6-dihydro-4H-1,3-thiazin-2-amine] | 8000 nM
18 | COc1ccc([C@@H]2C[C@@H](c3cccc(-c4cccc(C#N)c4)c3)N=C(N)S2)cc1OC (racemic) [Example 31, 3′-((±)-2-amino-6-(3,4-dimethoxyphenyl)-5,6-dihydro-4H-1,3-thiazin-4-yl)biphenyl-3-carbonitrile] | 8900 nM
19 | CC#Cc1cncc(-c2cc([C@@H]3C[C@@H](c4ccc(OC)c(OC)c4)SC(N)=N3)c(F)cc2F)c1 (racemic) [Example 32, (±)-4-(2,4-difluoro-5-(5-(prop-1-ynyl)pyridin-3-yl)phenyl)-6-(3,4-dimethoxyphenyl)-5,6-dihydro-4H-1,3-thiazin-2-amine] | 1000 nM

Same assay, conditions: H4 APP751 SWE clone 8.20 cells, 19 h incubation; Table 5B, 6-heterocyclic thiazine examples

Row | Structure (SMILES) | IC50
20 | Cc1n[nH]c(C)c1[C@@H]1C[C@@H](c2cccc(-c3cncnc3)c2)N=C(N)S1 (racemic) [Example 18, (±)-6-(3,5-dimethyl-1H-pyrazol-4-yl)-4-(3-(pyrimidin-5-yl)phenyl)-5,6-dihydro-4H-1,3-thiazin-2-amine•TFA] | 7100 nM
21 | Cc1noc(C)c1[C@@H]1C[C@@H](c2cccc(-c3cncnc3)c2)N=C(N)S1 (racemic) [Example 19, (±)-6-(3,5-dimethylisoxazol-4-yl)-4-(3-(pyrimidin-5-yl)phenyl)-5,6-dihydro-4H-1,3-thiazin-2-amine•TFA] | 230 nM
22 | NC1=N[C@H](c2cccc(-c3cncnc3)c2)C[C@@H](c2cccnc2)S1 (racemic) [Example 20, (±)-6-(pyridin-3-yl)-4-(3-(pyrimidin-5-yl)phenyl)-5,6-dihydro-4H-1,3-thiazin-2-amine•TFA] | 7800 nM
23 | NC1=N[C@H](c2cccc(-c3cncnc3)c2)C[C@@H](c2c[nH]cn2)S1 (racemic) [Example 21, (±)-6-(1H-imidazol-4-yl)-4-(3-(pyrimidin-5-yl)phenyl)-5,6-dihydro-4H-1,3-thiazin-2-amine•TFA] | > 30000 nM
24 | NC1=N[C@H](c2cccc(-c3cncnc3)c2)C[C@@H](c2ccccn2)S1 (racemic) [Example 22, (±)-6-(pyridin-2-yl)-4-(3-(pyrimidin-5-yl)phenyl)-5,6-dihydro-4H-1,3-thiazin-2-amine•TFA] | 2000 nM
25 | NC1=N[C@H](c2cccc(-c3cncnc3)c2)C[C@@H](c2cnccn2)S1 (racemic) [Example 23, (±)-6-(pyrazin-2-yl)-4-(3-(pyrimidin-5-yl)phenyl)-5,6-dihydro-4H-1,3-thiazin-2-amine•TFA] | 2400 nM
26 | Cc1ncsc1[C@@H]1C[C@@H](c2cccc(-c3cncnc3)c2)N=C(N)S1 (racemic) [Example 24, (±)-6-(4-methylthiazol-5-yl)-4-(3-(pyrimidin-5-yl)phenyl)-5,6-dihydro-4H-1,3-thiazin-2-amine•TFA] | 1000 nM
27 | Cc1c([C@@H]2C[C@@H](c3cccc(-c4cncnc4)c3)N=C(N)S2)cnn1C (racemic) [Example 25, (±)-6-(1,5-dimethyl-1H-pyrazol-4-yl)-4-(3-(pyrimidin-5-yl)phenyl)-5,6-dihydro-4H-1,3-thiazin-2-amine•TFA] | 3400 nM
28 | Cc1nn(C)cc1[C@@H]1C[C@@H](c2cccc(-c3cncnc3)c2)N=C(N)S1 (racemic) [Example 26, (±)-6-(1,3-dimethyl-1H-pyrazol-4-yl)-4-(3-(pyrimidin-5-yl)phenyl)-5,6-dihydro-4H-1,3-thiazin-2-amine•TFA] | 2500 nM
29 | Cn1cc([C@@H]2C[C@@H](c3cccc(-c4cncnc4)c3)N=C(N)S2)cn1 (racemic) [Example 27, (±)-6-(1-methyl-1H-pyrazol-4-yl)-4-(3-(pyrimidin-5-yl)phenyl)-5,6-dihydro-4H-1,3-thiazin-2-amine•TFA] | 2600 nM
30 | Cc1nn(C)c(C)c1[C@@H]1C[C@@H](c2cccc(-c3cncnc3)c2)N=C(N)S1 (racemic) [Example 28, (±)-4-(3-(pyrimidin-5-yl)phenyl)-6-(1,3,5-trimethyl-1H-pyrazol-4-yl)-5,6-dihydro-4H-1,3-thiazin-2-amine•TFA] | > 30000 nM
31 | Cc1noc(C)c1[C@@H]1C[C@@H](c2cc(-c3cncnc3)c(F)cc2F)N=C(N)S1 (racemic) [Example 29, (±)-4-(2,4-difluoro-5-(pyrimidin-5-yl)phenyl)-6-(3,5-dimethylisoxazol-4-yl)-5,6-dihydro-4H-1,3-thiazin-2-amine] | 200 nM
